Data set [1] concerns bovine viral diarrhea virus (BVDV) NADL strain. Put plainly: BVDV antiviral efficacy evaluation, drug-drug combination analysis (checkerboard, MTS staining, MacSynergy II). Format: cell-based. Conditions: in combination with TNF-α; MDBK cells with BVDV virus; interaction by Bliss independence (MacSynergy II). The procedure:
(§1) The substances were solubilized in DMSO. […]
(§2) The bovine viral diarrhea virus (BVDV) NADL strain antiviral evaluation assay and drug-drug combination analysis was performed as described in Antimicro. Agents Chemother. 2003; 47: 2293-8. BVDV is frequently employed as a hepatitis C virus surrogate model in the study of antiviral agents (Antiviral Res. 2003; 60: 1-15). Madin-Darby bovine kidney cells were trypsinized, pelleted, counted and resuspended at 1×10^4/well in tissue culture medium in 96-well flat bottom, tissue culture plates in volume of 100µl per well. […]
(§3) At assay termination, the assay plates were stained with the soluble tetrazolium-based dye MTS (CellTiter Reagent Promega) to determine cell viability and quantify compound toxicity. MTS is metabolized y the mitochondrial enzymes of metabolically active cells to yield a soluble formazan product, allowing the rapid quantitative analysis of cell viability and compound cytotoxicity. […] Adhesive sealers were used in place of the lids, the sealed plate was inverted several times to mix the soluble formazan product and the plate was read spectrophotometrically at 490 nm and 650 nm with a Molecular Devices Vmax plate reader. […]
(§4) Theoretical additive values are calculated from the dose response curves for each substance used individually. […]

Data set [2] concerns Madin-Darby bovine kidney cells. Kind of data set: BVDV assay, cytotoxicity of the drug-drug combination (MTS staining for cell viability). The conditions noted are these: in combination with TNF-α; MDBK cells; interaction by Bliss independence (MacSynergy II). Format: cell-based. The protocol: as §1, §2, §3, §4

Molecules are shown by their SMILES.

For the compound `O=C(c1ccccc1)c1ccc2nc(NC(=O)c3csc(C4CCN(c5ncnc6ccsc56)CC4)n3)[nH]c2c1` [Compound 273, 2-(1-Thieno[3,2-d]pyrimidin-4-yl-piperidin-4-yl)-thiazole-4-carboxylic acid (5-b enzoyl-1H-benzaimidazol-2-yl)-amide], in data set [1], the combined antiviral activity entry is “highly synergistic behaviour”. Moreover, in data set [2], the combined cytotoxic activity result is “highly antagonistic behaviour”.
